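Values below derive from 48-hour exposures of cells grown in 96-well plates, with endpoints linearly interpolated between the two concentrations bracketing the appropriate inhibition level. GI50 is the concentration that inhibits growth by half.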 Active and inactive are the calls of the source. Rule as the data show it: active = GI50 up to about 1.1 µM and inactive = higher.
Key:
Experiment in all cases: NCI anticancer screen, dose series, 48 h
EKVX = tested on: EKVX
HCC 2998 = tested on: HCC 2998
HL-60 = tested on: HL-60
Hs-578T = tested on: Hs-578T
MDA-N = tested on: MDA-N
MOLT-4 = tested on: MOLT-4
Malme-3M = tested on: Malme-3M
NCI-H226 = tested on: NCI-H226
RPMI-8226 = tested on: RPMI-8226
SN12C = tested on: SN12C
SNB-75 = tested on: SNB-75
SR = tested on: SR
T47D = tested on: T47D
TK-10 = tested on: TK-10
UO-31 = tested on: UO-31
CAKI-1 = tested on: CAKI-1
CCRF-CEM = tested on: CCRF-CEM
LOX IMVI = tested on: LOX IMVI
NCI-H522 = tested on: NCI-H522
NCI/ADR-RES = tested on: NCI/ADR-RES

Structure (SMILES) | GI50 (EKVX) | GI50 (HCC 2998) | GI50 (HL-60) | GI50 (Hs-578T) | GI50 (MDA-N) | GI50 (MOLT-4) | GI50 (Malme-3M) | GI50 (NCI-H226) | GI50 (RPMI-8226) | GI50 (SN12C) | GI50 (SNB-75) | GI50 (SR) | GI50 (T47D) | GI50 (TK-10) | GI50 (UO-31) | GI50 (CAKI-1) | GI50 (CCRF-CEM) | GI50 (LOX IMVI) | GI50 (NCI-H522) | GI50 (NCI/ADR-RES)
c1ccc(/N=C2\C(=N/c3ccccc3)N(C3CCCCC3)/C(=N\C3CCCCC3)N2c2ccccc2)cc1 | > 100 µM (inactive) | > 100 µM (inactive) | > 100 µM (inactive) | > 100 µM (inactive) | > 100 µM (inactive) | > 100 µM (inactive) | > 100 µM (inactive) | > 100 µM (inactive) | > 100 µM (inactive) | > 10 µM (inactive) | > 100 µM (inactive) | > 100 µM (inactive) | 49.9 µM (inactive) | > 100 µM (inactive) | > 100 µM (inactive) | – | – | – | – | –
COc1cc(/C=C/c2cc(=O)cc(/C=C/c3ccc(O)c(OC)c3)o2)ccc1O | > 70 µM (inactive) | 13.6 µM (inactive) | 15.7 µM (inactive) | 24.4 µM (inactive) | – | – | > 69.5 µM (inactive) | 29.3 µM (inactive) | 1.1 µM (active) | > 60.3 µM (inactive) | 29.9 µM (inactive) | > 23.6 µM (inactive) | 15.3 µM (inactive) | > 75.5 µM (inactive) | > 100 µM (inactive) | 64.3 µM (inactive) | 0.324 µM (active) | 29.6 µM (inactive) | 9.79 µM (inactive) | 98.4 µM (inactive)
CCOC(=O)CC1c2ccc(O)cc2OC(=O)C1c1ccc(N)cc1 (configuration not stated) | > 100 µM (inactive) | > 100 µM (inactive) | – | 66.1 µM (inactive) | > 100 µM (inactive) | > 100 µM (inactive) | > 100 µM (inactive) | > 100 µM (inactive) | > 100 µM (inactive) | > 100 µM (inactive) | 84.9 µM (inactive) | > 100 µM (inactive) | – | > 100 µM (inactive) | > 100 µM (inactive) | > 100 µM (inactive) | > 100 µM (inactive) | > 100 µM (inactive) | 86.7 µM (inactive) | > 100 µM (inactive)
S=C(N/N=C/c1ccccn1)N1CC2CCC(CC2)C1 | < 0.0395 µM (active) | 0.0895 µM (active) | < 0.01 µM (active) | 0.299 µM (active) | 0.0188 µM (active) | < 0.01 µM (active) | < 0.047 µM (active) | – | < 0.01 µM (active) | < 0.0216 µM (active) | 0.2 µM (active) | – | < 0.01 µM (active) | < 0.01 µM (active) | < 0.0111 µM (active) | < 0.01 µM (active) | < 0.01 µM (active) | < 0.01 µM (active) | < 0.01 µM (active) | < 0.01 µM (active)
COc1ccc(CCNC(=O)CCc2ccccc2CO)cc1OC | > 100 µM (inactive) | > 100 µM (inactive) | > 100 µM (inactive) | > 100 µM (inactive) | – | > 100 µM (inactive) | – | > 100 µM (inactive) | > 100 µM (inactive) | > 100 µM (inactive) | > 100 µM (inactive) | > 100 µM (inactive) | > 100 µM (inactive) | > 100 µM (inactive) | > 100 µM (inactive) | > 100 µM (inactive) | > 100 µM (inactive) | – | > 100 µM (inactive) | > 100 µM (inactive)
O=c1[nH]cnc2c1sc1nc3ccccc3n12 | > 100 µM (inactive) | 73.3 µM (inactive) | – | 51.6 µM (inactive) | > 100 µM (inactive) | 90.6 µM (inactive) | > 100 µM (inactive) | > 100 µM (inactive) | > 100 µM (inactive) | – | 49.3 µM (inactive) | – | > 100 µM (inactive) | 70 µM (inactive) | 42.3 µM (inactive) | > 100 µM (inactive) | 55.6 µM (inactive) | 27.8 µM (inactive) | > 100 µM (inactive) | > 100 µM (inactive)
COc1cccc(/C=N/n2c(-c3ccccc3)n[nH]c2=O)c1 | > 100 µM (inactive) | > 100 µM (inactive) | – | 22.7 µM (inactive) | > 100 µM (inactive) | > 100 µM (inactive) | > 100 µM (inactive) | 43.7 µM (inactive) | > 100 µM (inactive) | 87.7 µM (inactive) | 34.3 µM (inactive) | – | 27.5 µM (inactive) | – | > 100 µM (inactive) | 53 µM (inactive) | > 100 µM (inactive) | – | – | 39.4 µM (inactive)
O=[N+]([O-])c1cc(Cl)c(Cl)cc1[N+](=O)[O-] | 2.83 µM (inactive) | – | 1.9 µM (inactive) | 13.9 µM (inactive) | – | 0.212 µM (active) | 2.74 µM (inactive) | 3.89 µM (inactive) | 4.17 µM (inactive) | 1.91 µM (inactive) | 3.6 µM (inactive) | 1.89 µM (inactive) | 3.24 µM (inactive) | 3.55 µM (inactive) | 1.93 µM (inactive) | 2.34 µM (inactive) | 5.94 µM (inactive) | 2.37 µM (inactive) | 1.87 µM (inactive) | 4.18 µM (inactive)
Cc1cc(NS(=O)(=O)c2ccc(/N=[N+](\[O-])c3ccc(S(=O)(=O)Nc4cc(C)on4)cc3)cc2)no1 | > 100 µM (inactive) | – | > 100 µM (inactive) | > 100 µM (inactive) | – | > 100 µM (inactive) | > 100 µM (inactive) | > 100 µM (inactive) | > 100 µM (inactive) | > 100 µM (inactive) | > 100 µM (inactive) | > 100 µM (inactive) | > 100 µM (inactive) | > 100 µM (inactive) | > 100 µM (inactive) | > 100 µM (inactive) | > 100 µM (inactive) | > 100 µM (inactive) | > 100 µM (inactive) | > 100 µM (inactive)
N=C(Nc1nc(-c2ccccn2)cc2ccccc12)c1ccccn1 | 0.0221 µM (active) | 0.117 µM (active) | 0.01 µM (active) | 1.61 µM (inactive) | 0.272 µM (active) | 0.01 µM (active) | 0.157 µM (active) | 0.106 µM (active) | 0.00201 µM (active) | 0.0252 µM (active) | 0.361 µM (active) | – | 0.0244 µM (active) | 0.249 µM (active) | 0.0918 µM (active) | < 0.0123 µM (active) | 0.01 µM (active) | 0.0266 µM (active) | 0.0398 µM (active) | < 0.0185 µM (active)
COc1cc([C@@H]2c3cc4c(cc3[C@@H](c3c(O)cc(O)c5c3O[C@H](c3ccc(O)c(O)c3)[C@H](OC(=O)c3cc(O)c(O)c(O)c3)C5)[C@H]3COC(=O)[C@H]23)OCO4)cc(OC)c1O | 44.7 µM (inactive) | 33.8 µM (inactive) | 19.5 µM (inactive) | 96.4 µM (inactive) | 18.4 µM (inactive) | 33.7 µM (inactive) | > 100 µM (inactive) | – | 26.6 µM (inactive) | 22.3 µM (inactive) | – | – | > 100 µM (inactive) | 92.3 µM (inactive) | – | 76.6 µM (inactive) | 24.4 µM (inactive) | 29.2 µM (inactive) | 24 µM (inactive) | 54.8 µM (inactive)
CNc1cc(Cl)ccc1C(=O)N1CCC[C@H]1CO | > 100 µM (inactive) | – | 81.7 µM (inactive) | > 100 µM (inactive) | 97.1 µM (inactive) | > 100 µM (inactive) | > 100 µM (inactive) | 78.2 µM (inactive) | – | > 100 µM (inactive) | 53.5 µM (inactive) | – | > 100 µM (inactive) | > 100 µM (inactive) | > 100 µM (inactive) | > 100 µM (inactive) | > 100 µM (inactive) | > 100 µM (inactive) | > 100 µM (inactive) | > 100 µM (inactive)
NNC1=N/C(=C\c2ccccc2O)C(=O)N1 | 50.5 µM (inactive) | – | 14.6 µM (inactive) | > 100 µM (inactive) | 42.2 µM (inactive) | 21.5 µM (inactive) | 43.9 µM (inactive) | 47.5 µM (inactive) | 24 µM (inactive) | 40.7 µM (inactive) | > 100 µM (inactive) | – | 38.5 µM (inactive) | 60.1 µM (inactive) | 16.6 µM (inactive) | 60.3 µM (inactive) | 9.12 µM (inactive) | 24.5 µM (inactive) | 35.3 µM (inactive) | 35.8 µM (inactive)
CCCCn1cnnc1NS(=O)(=O)c1cc(C)c(Cl)cc1SCC(=O)O | > 10 µM (inactive) | > 10 µM (inactive) | > 10 µM (inactive) | > 10 µM (inactive) | > 10 µM (inactive) | > 10 µM (inactive) | > 10 µM (inactive) | > 10 µM (inactive) | > 10 µM (inactive) | > 10 µM (inactive) | > 10 µM (inactive) | – | > 10 µM (inactive) | > 10 µM (inactive) | > 10 µM (inactive) | > 10 µM (inactive) | > 10 µM (inactive) | > 10 µM (inactive) | > 10 µM (inactive) | > 10 µM (inactive)
NC(=O)c1nc[nH]c1/N=N/SCC(N)C(=O)O (configuration not stated) | > 75.7 µM (inactive) | 4.06 µM (inactive) | 1.26 µM (inactive) | > 56.9 µM (inactive) | – | 0.962 µM (active) | 5.9 µM (inactive) | > 44.8 µM (inactive) | 6.24 µM (inactive) | 6.73 µM (inactive) | 24.3 µM (inactive) | 0.773 µM (active) | > 60.5 µM (inactive) | 5.32 µM (inactive) | 4.22 µM (inactive) | 4.21 µM (inactive) | 2 µM (inactive) | 2.61 µM (inactive) | > 68.7 µM (inactive) | 6.58 µM (inactive)
COc1cc(/N=C(\N)N=C(N)N)c2ncccc2c1 | > 100 µM (inactive) | > 100 µM (inactive) | – | 98.4 µM (inactive) | > 100 µM (inactive) | – | 44.7 µM (inactive) | 18.7 µM (inactive) | – | 62.1 µM (inactive) | 60.4 µM (inactive) | – | 29.9 µM (inactive) | > 100 µM (inactive) | > 100 µM (inactive) | > 100 µM (inactive) | – | > 100 µM (inactive) | 72.8 µM (inactive) | > 100 µM (inactive)
